The numbers were not newly measured in patent US20230398069A1, “ETOPOSIDE TONIRIBATE FORMULATION” (CELLACT PHARMA GMBH, priority 2020, published 2023), which cites them from elsewhere.

Structures are written as SMILES.

For the series the following is noted: API.

As for `COc1cc([C@@H]2c3cc4c(cc3[C@@H](O[C@@H]3O[C@@H]5CO[C@@H](C)O[C@H]5[C@@H](O)[C@H]3O)[C@H]3COC(=O)[C@H]23)OCO4)cc(OC)c1OC(=O)OCC1COC(C)(C)O1` (some centres unmarked) [Etoposide toniribate], the solubility in water entry is on record as “poorly soluble in water”; the “stability at acidic and basic pH” value was “unstable at acidic and basic pH”.
